Tests used:
[1] = test system: leukemia cells MV-4-11; assay: Cell proliferation assay, CELL TITER-GLO (CTG) luminescence, MV-4-11; type: cell-based
Procedure: (§1) Example B: Cell Proliferation Assay
(§2) The effects of the compounds of the invention on the proliferation of leukemia cells MV-4-11 and lung cancer cells NCI-H358 were evaluated using in vitro cell assays. The detection method used in the experiment is the CELL TITER-GLO (CTG) luminescence method, which can detect the number of viable cells by quantifying ATP. Because ATP participates in a variety of enzymatic reactions in vivo, it is an indicator of the metabolism of living cells, and its content directly reflects the number and state of cells. During the experiment, CellTiter-Glo™ reagent was added to the cell culture medium to measure the luminescence value. The value is proportional to the amount of ATP, and ATP is positively related to the number of living cells, so the cell viability can be examined by detecting the ATP content.
(§3) experiment procedure: • (1) Cell plating: • Take a bottle of MV-4-11 cells in logarithmic growth phase, resuspend the cells by centrifugation and count them. After adjusting the cell density, they were seeded into a 96-well plate (Corning #3917). After culturing in a 5% CO2 incubator for 24 hrs, the compound of the present invention was added for treatment; • Take a bottle of NCI-H358 cells in logarithmic growth phase, digest and resuspend the cells, count them, adjust the cell density, and inoculate them into a 96-well transparent ultra-low adsorption cell culture plate (Corning #3474), inoculate 2000 cells per well. The plate was placed in an incubator at 37° C. and 5% CO2 for 24 hrs, and then the compound of the present invention was added for treatment; • (2) Cell compound treatment: • An appropriate amount of the compound of the present invention was prepared for cell treatment. The final concentration of the compound from high to low was 1000 nM, 333.3 nM, 111.1 nM, 37.04 nM, 12.35 nM, 4.115 nM, 1.372 nM, 0.4572 nM, 0.1524 nM, and 0 nM. The plate was placed in a 37° C., 5% CO2 incubator for 120 hrs. Only adding medium without cell wells was set as the blank group; the group with compound concentration of 0 nM was the zero-adjusting group. • (3) CTG detection: • After NCI-H358 cells were cultured for 96 hrs, 50 µL of CellTiter-Glo® Luminescent Cell Viability Assay solution was added to each well, shaken gently for 2 mins, and incubated at room temperature for 10 mins. The cell reaction system was transferred to a white-bottomed 96-well plate. Read the detection value of each well on a multi-function microplate reader. • After MV-4-11 cells were cultured for 120 hrs, 50 µL of CellTiter-Glo® Luminescent Cell Viability Assay solution was added to each well, gently shaken for 2 mins, and incubated at room temperature for 10 mins. Check the value. • (4) Data analysis: • Calculate the inhibition rate from the luminescence value readings, • [formula]
(§4) The log(inhibitor) vs. response-Variable slope of GraphPad Prism was fitted to dose-response curves and IC50s of compounds that inhibited cell proliferation were calculated.

[2] = test system: lung cancer cells NCI-H358; assay: Cell proliferation assay, CELL TITER-GLO (CTG) luminescence, NCI-H358; type: cell-based; details: cultured for 96 hrs
Procedure: as §1, §2, §3, §4

[3] = In vitro metabolic stability in liver microsomes, human; type: in vitro ADME; details: for microsomal CLint at 2 µM: pH 7.3, read-out: CLint (µL/min/mg protein) human
Procedure: (§5) Example D: In Vitro Metabolic Stability of Human and Rat Liver Microsomes Test Buffer Preparation
(§6) Dissolve 1900 mg of MgCl2 in 400 mL of ultrapure water.
(§7) Dissolve 17.42 g K2HPO4 and 13.65 g KH2PO4 into 1000 mL of ultrapure water, respectively. Mix a certain proportion of K2HPO4 and KH2PO4 to adjust the pH to 7.30 ± 0.10.
(§8) Prepare a solution of 10 ng/mL labetalol and 10 ng/mL glyburide in acetonitrile and store at 4° C.
(§9) Prepare 10 mM verapamil (positive control) and test article stock solutions in DMSO. Then, with MeOH/ACN/H2O solution (1:1:2 by volume), diluted to 50 µM and 200 µM working solutions, respectively.
(§10) experiment procedure: • 1) Add 40 µL MgCl2 and 306 µL PBS to 96 wells (set blank control group, positive control group, test compound sample group, and negative control group at the same time) • 2) Add 4 µL of compound working solution to each well (4 µL of PBS buffer for blank group) (Note: the final concentration of DMSO volume in the system is ≤ 0.5%) • 3) Add 10 µL of liver microsomes (concentration: 20 mg/mL) to each well, mix well, and pre-incubate at 37° C. for 10 minutes. • 4) Add 40 µL of 10 mM NADPH working solution to each well to start the reaction (add equal volume of PBS buffer for blank control group and negative control group respectively), the total reaction volume is 400 µL. • 5) Take out 50 µL samples from the above reaction solution at 0, 5, 15, and 45 minutes, and add 400 µL of reaction stop solution to stop the reaction • 6) Shake the sample after the termination of the reaction on a shaker for 5 minutes. • 7) Centrifuge the sample at 3200 rcf for 10 minutes. After the centrifugation is complete, transfer 50 µL of the supernatant to 200 µL of H2O for dilution for LC-MS/MS analysis.
(§11) Calculations of t½ and CLint are performed using the first-order kinetic equations: […]
(§12) where k represents the elimination constant, calculated from a log-linear plot of percentage remaining versus time. t½ represents half-life. Cprotein is the concentration of liver microsomes.

[4] = In vitro metabolic stability in liver microsomes, rat; type: in vitro ADME; details: for microsomal CLint at 2 µM: pH 7.3, read-out: CLint (µL/min/mg protein) rat
Procedure: as §5, §6, §7, §8, §9, §10, §11, §12

[5] = In vitro metabolic stability in liver microsomes, mouse; type: in vitro ADME; details: for microsomal CLint at 2 µM: pH 7.3, read-out: CLint (µL/min/mg protein) mouse
[6] = In vitro metabolic stability in liver microsomes, monkey; type: in vitro ADME; details: for microsomal CLint at 2 µM: pH 7.3, read-out: CLint (µL/min/mg protein) monkey
[7] = In vitro metabolic stability in liver microsomes, dog; type: in vitro ADME; details: for microsomal CLint at 2 µM: dog, microsomes, pH 7.3
[8] = target: SHP2 (Homo sapiens (Human), UniProt Q06124); assay: SHP2 allosteric inhibitory enzyme activity assay (DiFMUP fluorescence); type: biochemical; details: read-out: SHP2 enzymatic activity IC50
Description: Example A: SHP2 Allosteric Inhibitory Enzyme Activity Assay
SHP2 is allosterically activated by binding of a bis-tyrosyl-phosphorylated peptide to its Src homology 2 (SH2) domain. This later activation step results in the release of the autoinhibitory interface of SHP2, which in turn activates the SHP2 protein tyrosine phosphatase (PTP) and is available for substrate recognition and reaction catalysis. The catalytic activity of SHP2 was monitored using the surrogate DiFMUP in a rapid fluorescence assay format.
experiment procedure: • (1) Compound preparation: • The compounds of the present invention (10 mM stock solution) were diluted to appropriate times with 100% DMSO, and the final test concentrations of the compounds of the present invention were 10 µM, 3.3333 µM, 1.1111 µM, 0.3704 µM, 0.1235 µM, 0.0412 µM, 0.0137 µM, 0.0046 µM, 0.0015 µM, 0.00 µM; • (2) Prepare the enzyme reaction working solution: • Perform SHP2 enzymatic assays in 96-well black polystyrene plates (flat bottom, low flange, non-binding surface) (Perki Elmer, Cat#6005270) at room temperature using a final reaction volume of 50 µL and the following assay buffer conditions: 60 mM HEPES, 75 mM NaCl, 75 mM KCl, 0.05% BRIJ-35, 1 mM EDTA, 5 mM DTT. • (3) Enzyme-catalyzed reaction and data monitoring: • Add the compound of the present invention to the corresponding 96-well plate, and set the blank test well without compound and enzyme only with buffer. Thaw SHP2 Activating Peptide (IRS1_pY1172(dPEG8)pY1222) on ice, add 25 µM to each well, then add 0.2 ng of SHP2 protein sample to the corresponding well plate and incubate at room temperature for 1 hour. The surrogate substrate DiFMUP (Invitrogen, Cat #D6567) was added to the reaction and allowed to react for 1 hour at room temperature. Fluorescence signals were monitored using a microplate reader (Envision, Perki Elmer) using excitation and emission wavelengths of 340 nm and […], respectively. • (4) Data analysis: • Calculation Formula: • [formula]
Among them: Conversion_sample is the conversion rate reading of the sample; Conversion_min is the average value of blank control wells, representing the conversion rate readings of wells without enzymatic activity; Conversion_max is the mean ratio of positive control wells, representing the conversion rate readings of wells without compound inhibition. The log(inhibitor) vs. response-Variable slope of the analysis software GraphPad Prism was used to fit the dose-response curve, and the IC50 value of the compound for the enzymatic activity was calculated.

[9] = Homo sapiens, MV4-11, cultured for 120 hrs
[10] = Homo sapiens, NCI-H358, ultra-low adsorption plate

`N#Cc1ccc(OCC#Cc2cnc(N3CCC4(CC3)Cc3ccccc3[C@H]4N)c(CO)n2)cc1` [Compound A12, (S)-4-((3-(5-(1-amino-1,3-dihydrospiro[indene-2,4′-piperidin]-1′-yl)-6-(hydroxymethyl)pyrazin-2-yl)prop-2-yn-1-yl)oxy)benzonitrile] showed an IC50 [1, 9] of 3.8 nM, an IC50 [2, 10] of 7.4 nM and a microsomal CLint at 2 µM [3] of 0.2 µL/min/mg. For the same molecule, the microsomal CLint at 2 µM [4] was 5.5 µL/min/mg, the microsomal CLint at 2 µM [5] was 8.3 µL/min/mg and the microsomal CLint at 2 µM [6] was 7.3 µL/min/mg. It also gave a microsomal CLint at 2 µM [7] of 6.2 µL/min/mg.
`N[C@@H]1c2ccccc2CC12CCN(c1ncc(C#CCOc3ccc(C(F)(F)F)cc3)nc1CO)CC2` [Compound A14, (S)-(3-(1-amino-1,3-dihydrospiro[indene-2,4′-piperidin]-1′-yl)-6-(3-(4-(trifluoromethyl)phenoxy)prop-1-yn-1-yl)pyrazin-2-yl)methanol] gave a microsomal CLint at 2 µM [3] of 1.4 µL/min/mg, a microsomal CLint at 2 µM [4] of 1.8 µL/min/mg and a microsomal CLint at 2 µM [5] of 6.4 µL/min/mg. It also gave a microsomal CLint at 2 µM [6] of 3.1 µL/min/mg and a microsomal CLint at 2 µM [7] of 7.8 µL/min/mg.
For `Nc1ncc(OCC#Cc2cnc(N3CCC4(CC3)Cc3ccccc3[C@H]4N)c(CO)n2)cn1` [Compound A19, (S)-(3-(1-amino-1,3-dihydrospiro[indene-2,4′-piperidin]-1′-yl)-6-(3-( (2-Aminopyrimidine-5-yl)oxy)prop-1-yn-1-yl)pyrazin-2-yl)methanol], the microsomal CLint at 2 µM [3] was 8.2 µL/min/mg, the microsomal CLint at 2 µM [4] was 31.6 µL/min/mg and the microsomal CLint at 2 µM [5] was 21.4 µL/min/mg. The microsomal CLint at 2 µM [6] was 21.2 µL/min/mg and the microsomal CLint at 2 µM [7] was 18.3 µL/min/mg.
`N[C@@H]1c2ccccc2CC12CCN(c1ncc(C#CCOc3ccc4ccc(=O)[nH]c4c3)nc1CO)CC2` [Compound A24, (S)-7-((3-(5-(1-amino-1,3-dihydrospiro[indene-2,4′-piperidin]-1′-yl)-6-(hydroxymethyl)pyrazin-2-yl)prop-2-yn-1-yl)oxy)quinolin-2(1H)-one] gave an IC50 [1, 9] of 1.3 nM, an IC50 [2, 10] of 1.5 nM and a microsomal CLint at 2 µM [3] of 1.6 µL/min/mg. It also gave a microsomal CLint at 2 µM [4] of 11 µL/min/mg, a microsomal CLint at 2 µM [5] of 8.3 µL/min/mg and a microsomal CLint at 2 µM [6] of 9.9 µL/min/mg. It also gave a microsomal CLint at 2 µM [7] of 8.8 µL/min/mg.
Molecule `NC(=O)c1cccc(NCC#Cc2cnc(N3CCC4(CC3)Cc3ccccc3[C@H]4N)c(CO)n2)c1` [Compound A81, (S)-3-((3-(5-(1-amino-1,3-dihydrospiro[indene-2,4′-piperidin]-1′-yl)-6-(hydroxymethyl)pyrazin-2-yl)prop-2-yn-1-yl)amino)benzamide] has an IC50 [1, 9] of 1.8 nM, an IC50 [2, 10] of 6.3 nM and a microsomal CLint at 2 µM [3] of 14.2 µL/min/mg. The microsomal CLint at 2 µM [4] was 18.4 µL/min/mg, the microsomal CLint at 2 µM [5] was 11.5 µL/min/mg and the microsomal CLint at 2 µM [6] was 4 µL/min/mg. It also gave a microsomal CLint at 2 µM [7] of 13.5 µL/min/mg.
In the case of “(S)-4-((3-(5-(1-amino-1,3-dihydro spiro[indene-2,4′-piperidin]-1′-yl)-6-(hydroxymethyl)pyrazin-2-yl)pr op-2-yn-1-yl)oxy)-N-picoline amide [Compound A40]”, the “CLint (µL/min/mg protein) human” value [3] is reported as 11.0 µL/min/mg protein, the “CLint (µL/min/mg protein) rat” value [4] is reported as 11.7 µL/min/mg protein and the “CLint (µL/min/mg protein) mouse” value [5] is reported as 11.0 µL/min/mg protein. For the same molecule, the “CLint (µL/min/mg protein) monkey” value [6] was 15.5 µL/min/mg protein and the “CLint (µL/min/mg protein) dog” value ([7]; dog liver microsomes) was 7.8 µL/min/mg protein.
With “(S)-(3-(1-amino-1,3-dihydrospiro[ indene-2,4′-piperidin]-1′-yl)-6-(3-( 3,4-dimethoxyphenoxy)prop-1-yn-1-y 1)pyrazin-2-yl)methanol [Compound A11]” the IC50 [8] was 1.5 nM, the IC50 ([1]; cultured for 120 hrs) was 2.6 nM and the IC50 ([2]; ultra-low adsorption plate) was 6.3 nM.
With “(S)-(3-(1-amino-1,3-dihydrospiro[ indene-2,4′-piperidin]-1′-yl)-6-(3-( 4-morpholinoloxy)prop-1-yn-1-yl )pyrazin-2-yl)methanol [Compound A20]” the IC50 [8] was 3.8 nM, the IC50 ([1]; cultured for 120 hrs) was 12 nM and the IC50 ([2]; ultra-low adsorption plate) was 14 nM.
In the case of “(S)-(3-(1-amino-1,3-dihydrospiro[ indene-2,4′-piperidin]-1′-yl)-6-(3-( benzo[d][1,3]dioxyol-5-oxy)prop-1-yn-1-yl)pyrazin-2-yl)methanol [Compound A28]”, the IC50 [8] is reported as 1.5 nM, the IC50 ([1]; cultured for 120 hrs) is reported as 6.1 nM and the IC50 ([2]; ultra-low adsorption plate) is reported as 7 nM.

From patent US20230339882A1, “SHP2 INHIBITOR AND COMPOSITION AND APPLICATION THEREOF” (Betta Pharmaceuticals Co., Ltd., priority 2020, published 2023)
